Measurements from patent publication US9440963B2, “Compositions, formulations and methods for treating ocular diseases” (Aerpio Therapeutics Inc., priority 2013, dated 2016).
“And” between values parts separate entries of the source, which are not always exact repeats. Equal entries are not always repeated.

Experiments:
[1] = Room temperature aqueous solubility with solubilizing agents (Example 36); format: physicochemical; conditions: room temperature; compared with water
Excerpt: The room temperature aqueous solubility (mg/mL) of the a compound (4-{(S)-2-[(S)-2-methoxycarbonylamino)-3-phenylpropanamido]-2-[2-(thiophen-2-yl)thiazol-4-yl]ethyl}phenylsulfamic acid) in water, HPβCD, Poloxamer 407, and sulfobutylether-β-cyclodextrin, is provided in TABLE XXVII. Solubility in saline for the test compound is reduced presumably due to the common ion effect.
The solubility (mg/mL) of the test compound in mixtures of HPβCD and PEG400 is illustrated in TABLE XXVIII.

[2] = test system: human subjects with visual acuity loss due to diabetic macular edema; assay: Central foveal/retinal thickness by ocular coherence tomography in diabetic macular edema study (Example 35); format: in vivo
Method: At any time during the course of the study, investigators could administer additional therapy consisting of intravitreal injection of an anti-VEGF agent, for example, ranibizumab, bevacizumab and/or aflibercept, if considered by the investigator to be medically necessary. Retinal thickness as measured by ocular coherence tomography and best corrected visual acuity as measured by a standard vision test (ETDRS) were assessed at regular intervals during the 28 day active treatment phase and through the 2 month post-treatment observation phase, (Screening, Day 1 [baseline], Day 7, Day 14, Day 21, Day 28, Day 42, Day 56 and Day 84). The main efficacy outcomes for the study were change in CRT and visual acuity over time with treatment. […] The mean change in Central Foveal Thickness was −289 μm, approximately double the reduction seen after ranibizumab injection in the study in FIG. 1. FIG. 5 represents the results of a single patient. The eye having the greater Central Foveal Thickness was chosen as the Study Eye. […] At week 3 (21 days, indicated by arrow) the fellow eye was treated with 0.5 mg of ranibizumab by injection. At week 6 (42 days, indicated by arrow) the treated eye was treated with 0.5 mg of ranibizumab. […] As a result, there was a pronounced reduction in CFT in the study eye from day 21 to day 28 (approximately 250 µm). […] At week 6, the study eye was treated with an intravitreal injection of 0.5 mg of ranibizumab. […] Compared to the study depicted in FIG. 1 wherein the average change in CFT at one month after ranibizumab injection was approximately […], the combination disclosed method provided substantially greater reductions at 2-4 weeks following ranibizumab injection. FIG. 6 represents the results of a single patient. The eye having the greater Central Foveal Thickness was chosen as the Study Eye. […] At week 4 (28 days, indicated by arrow) the fellow eye was rescued with 2 mg of aflibercept. […] At week 6 (42 days, indicated by arrow) the study eye was rescued with 2 mg of aflibercept. […] Unlike the results depicted for the ranibizumab protocol, there was no evidence of systemically delivered aflibercept to the Fellow Eye.

solubility in saline [1]: reduced
Structure (SMILES): COC(=O)N[C@@H](Cc1ccccc1)C(=O)N[C@@H](Cc1ccc(NS(=O)(=O)O)cc1)c1csc(-c2cccs2)n1
Central Foveal Reduction, single patient eye ([2]; 5 mg subcutaneously twice daily for 28 days, subsequently ranibizumab (0.3 or 0.5 mg) or aflibercept (2 mg) intravitreal, 14-28 days post ranibizumab or aflibercept, 7 eyes): 50-100 μm and 150-200 μm and 200-250 μm and 300-350 μm and 350-400 μm and 450-500 μm
fall of Central Foveal Thickness of the fellow eye ([2]; single patient (FIG. 5), 5 mg s.c. twice daily from day one, fellow eye 0.5 mg ranibizumab at week 3, by week 4 (28 days)): 350 μm
overall reduction in CFT of the study eye ([2]; single patient (FIG. 5), by week 8, after 0.5 mg ranibizumab at week 6): approximately 500 μm
reduction in CFT in the study eye ([2]; single patient (FIG. 5), from day 21 to day 28): approximately 250 µm
reduction of CFT in the non-treated eye from onset of the study ([2]; single patient (FIG. 6)): ~280 μm
reduction of CFT in the study eye from onset of the study ([2]; single patient (FIG. 6)): approximately 300 μm
CFT reduction of the Fellow eye after rescue ([2]; single patient (FIG. 6), 5 mg s.c. twice daily from day one, fellow eye rescued with 2 mg aflibercept at week 4): approximately 400 μm
CFT reduction of the Study eye after rescue ([2]; single patient (FIG. 6), study eye rescued with 2 mg aflibercept at week 6): approximately 300 μm
